Series [1] is described as follows: Veliparib plasma pharmacokinetics. Format: in vivo, human.
Series [2] concerns metastatic malignancy. The experiment in a line: Tumor response by RECIST version 1.1. Format: in vivo, human.
Setting [3] is: Group 1 N=31: veliparib Days 1-4 + cyclophosphamide Day 3, all tumor types.
Setting [4] is: Group 2 N=22: veliparib Days 1-4 + AC Day 3, all tumor types.
The mark [5] stands for this setting: Group 3 N=14: veliparib 100 mg every 12 h Days 1-7 + AC Day 1.
[6] abbreviates: Group 4 N=13: veliparib 100 mg every 12 h Days 1-14 + AC Day 1.

With `C[C@]1(c2nc3c(C(N)=O)cccc3[nH]2)CCCN1` [veliparib, 2-[(R)-2-methylpyrrolidin-2-yl]-1H-benzimidazole-4-carboxamide], in series [1] (Groups 1 and 2), the “AUC0-7 on C1D3 (with combination therapy) compared to C1D1 (alone)” value was “significantly higher” and the “Cmax on C1D3 (with combination therapy) compared to C1D1 (alone)” value is given as “comparable”. The “Dose proportionality of Cmax and AUC0-7” value in series [1] (veliparib administered alone, 50 to 200 mg dose range, C1D1) is given as “approximately dose-proportional increases”. Besides, the “Overall clinical benefit rate (CBR)” value in series [2] (Group 1 (veliparib + cyclophosphamide)) is listed as 13%. In addition, in series [2] (setting [3]), the “Complete response (best response achieved)” value (from here on “Complete response”) is 0 (0) n (%) and the “Stable disease ≥3 months (best response achieved)” value (from here on “Stable disease ≥3 months”) is 3 (10) n (%). In series [2] (setting [4]), the “Complete response” value was 0 (0) n (%), the “Partial response (best response achieved)” value (“Partial response” for short) was 4 (18) n (%) and the “Stable disease ≥3 months” value was 5 (23) n (%). For the same compound, in series [2] (setting [5]), the “Complete response” value was 0 (0) n (%), the “Partial response” value is reported as 2 (14) n (%) and the “Stable disease ≥3 months” value is given as 4 (29) n (%). In series [2] (setting [6]), the “Complete response” value is on record as 0 (0) n (%), the “Partial response” value is given as 5 (38) n (%) and the “Stable disease ≥3 months” value is 1 (8) n (%). This compound yielded an Objective response in series [2] (V and AC treated groups (11/49)) of 22%. Besides, the “Overall clinical benefit rate” value in series [2] (all groups (25/80)) came out at 31%. Moreover, in series [2] (among the 59 metastatic breast cancer patients treated), the “Patients with a BRCA1/2 mutation noted to have PRs” value is 5 patients.

(Values after publication PMC8934569 (Cancer chemotherapy and pharmacology, 2021).)
